These molecules were tested against T1, KRAS^G12C::SOS1 (Homo sapiens, UniProt Q07889) (assay: KRAS G12C::SOS1 protein-protein interaction (PPI) inhibition assay (HTRF binding kit)). Details: not given.
T1 sequence (Q07889 1-1333): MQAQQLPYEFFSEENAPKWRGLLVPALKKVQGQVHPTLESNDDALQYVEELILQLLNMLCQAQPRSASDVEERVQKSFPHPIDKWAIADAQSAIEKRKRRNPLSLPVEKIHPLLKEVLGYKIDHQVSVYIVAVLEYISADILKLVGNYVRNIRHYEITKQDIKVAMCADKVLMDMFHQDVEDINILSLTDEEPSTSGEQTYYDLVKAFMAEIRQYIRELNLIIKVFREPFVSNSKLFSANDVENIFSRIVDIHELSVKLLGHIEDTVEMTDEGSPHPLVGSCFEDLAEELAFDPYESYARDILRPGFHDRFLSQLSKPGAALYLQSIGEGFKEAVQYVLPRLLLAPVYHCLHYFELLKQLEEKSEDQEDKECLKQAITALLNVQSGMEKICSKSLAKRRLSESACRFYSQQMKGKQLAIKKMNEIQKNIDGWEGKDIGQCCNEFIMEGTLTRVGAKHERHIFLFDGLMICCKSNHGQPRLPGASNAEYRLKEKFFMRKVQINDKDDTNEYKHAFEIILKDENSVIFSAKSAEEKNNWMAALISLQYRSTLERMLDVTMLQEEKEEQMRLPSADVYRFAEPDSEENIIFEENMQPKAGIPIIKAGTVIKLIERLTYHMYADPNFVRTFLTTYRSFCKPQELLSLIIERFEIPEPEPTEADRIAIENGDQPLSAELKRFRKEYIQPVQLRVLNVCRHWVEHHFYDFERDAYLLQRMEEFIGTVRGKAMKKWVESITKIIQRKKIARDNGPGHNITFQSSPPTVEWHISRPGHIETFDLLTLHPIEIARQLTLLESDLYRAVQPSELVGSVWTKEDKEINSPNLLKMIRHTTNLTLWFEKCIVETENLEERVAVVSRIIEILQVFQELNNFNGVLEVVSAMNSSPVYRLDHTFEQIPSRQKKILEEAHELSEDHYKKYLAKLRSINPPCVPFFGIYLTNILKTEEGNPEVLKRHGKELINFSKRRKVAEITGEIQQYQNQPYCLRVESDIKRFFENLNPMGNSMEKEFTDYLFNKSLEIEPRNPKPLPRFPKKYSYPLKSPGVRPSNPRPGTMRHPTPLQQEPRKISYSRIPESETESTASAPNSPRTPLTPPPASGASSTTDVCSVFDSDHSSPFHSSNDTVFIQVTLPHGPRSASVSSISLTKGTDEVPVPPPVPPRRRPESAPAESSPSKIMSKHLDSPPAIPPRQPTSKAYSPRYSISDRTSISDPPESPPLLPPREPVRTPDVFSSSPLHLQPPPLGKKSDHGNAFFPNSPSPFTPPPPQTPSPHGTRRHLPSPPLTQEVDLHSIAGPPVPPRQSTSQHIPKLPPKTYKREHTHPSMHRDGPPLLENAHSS
In the case of `C[C@@H](NC(=O)c1ccc(=O)n(-c2cccc(F)c2F)n1)c1cccc(C(F)(F)CO)c1F` [Example 355, N-[(1R)-1-[3-(1,1-difluoro-2-hydroxy-ethyl)-2-fluoro-phenyl]ethyl]-1-(2,3-difluorophenyl)-6-oxo-pyridazine-3-carboxamide], the IC50 is reported as < 1000 nM. In the case of `C[C@@H](NC(=O)c1ccc(=O)n(-c2cccc(-c3ccnn3C)c2)n1)c1cccc(C(F)(F)CO)c1F` [Example 332, N-[(1R)-1-[3-(1,1-difluoro-2-hydroxy-ethyl)-2-fluoro-phenyl]ethyl]-1-[3-(2-methylpyrazol-3-yl)phenyl]-6-oxo-pyridazine-3-carboxamide], the IC50 is reported as < 1000 nM. For `CNCc1cc2c(cc1-c1ccc([C@@H](C)NC(=O)c3ccc(=O)n(-c4ccccc4F)c3)s1)CCC2` [Example 273, 1-(2-fluorophenyl)-N-[(1R)-1-[5-[6-(methylaminomethyl)indan-5-yl]-2-thienyl]ethyl]-6-oxo-pyridine-3-carboxamide], the IC50 was < 1000 nM. In the case of `COc1ccc(-n2cc(C(=O)N[C@H](C)c3cccc(C(F)(F)CO)c3F)ccc2=O)cc1` [Example 203, N-[(1R)-1-[3-(1,1-difluoro-2-hydroxy-ethyl)-2-fluoro-phenyl]ethyl]-1-(4-methoxyphenyl)-6-oxo-pyridine-3-carboxamide], the IC50 is reported as < 1000 nM. In the case of `CNCc1ccc(F)cc1-c1ccc([C@@H](C)NC(=O)c2ccc(=O)n(-c3cnn(C)c3)n2)s1` [Example 296, N-[(1R)-1-[5-[5-fluoro-2-(methylaminomethyl)phenyl]-2-thienyl]ethyl]-1-(1-methylpyrazol-4-yl)-6-oxo-pyridazine-3-carboxamide], the IC50 is reported as < 1000 nM. With `C[C@@H](NC(=O)c1ccc(=O)n(-c2ccccc2OC(F)F)n1)c1cc(N)cc(C(F)(F)F)c1` [Example 247, N-[(1R)-1-[3-amino-5-(trifluoromethyl)phenyl]ethyl]-1-[2-(difluoromethoxy)phenyl]-6-oxo-pyridazine-3-carboxamide] the IC50 was < 1000 nM. With `C[C@@H](NC(=O)c1ccc(=O)n(-c2cccc(-c3ccn(C)n3)c2)n1)c1cccc(C(F)(F)CO)c1F` [Example 330, N-[(1R)-1-[3-(1,1-difluoro-2-hydroxy-ethyl)-2-fluoro-phenyl]ethyl]-1-[3-(1-methylpyrazol-3-yl)phenyl]-6-oxo-pyridazine-3-carboxamide] the IC50 was < 1000 nM. `C[C@@H](NC(=O)c1nn(-c2ccccc2F)c(=O)c2cc[nH]c12)c1cccc(C(F)(F)CO)c1F` [Example 314, N-[(1R)-1-[3-(1,1-difluoro-2-hydroxy-ethyl)-2-fluoro-phenyl]ethyl]-5-(2-fluorophenyl)-4-oxo-1H-pyrrolo[2,3-d]pyridazine-7-carboxamide] was tested, and the IC50 was < 1000 nM. For `COc1ccc(F)c(-n2nc(C(=O)N[C@H](C)c3cc(N)cc(C(F)(F)F)c3)ccc2=O)c1` [Example 183, N-[(1R)-1-[3-amino-5-(trifluoromethyl)phenyl]ethyl]-1-(2-fluoro-5-methoxy-phenyl)-6-oxo-pyridazine-3-carboxamide], the IC50 was < 1000 nM. `C[C@@H](NC(=O)c1ccc(=O)n(-c2cccc(-c3ccccn3)c2)n1)c1cc(N)cc(C(F)(F)F)c1` [Example 325, N-[(1R)-1-[3-amino-5-(trifluoromethyl)phenyl]ethyl]-6-oxo-1-[3-(2-pyridyl)phenyl]pyridazine-3-carboxamide] was tested, and the IC50 was < 1000 nM. With `COCc1cccc(-n2nc(C(=O)N[C@H](C)c3cccc(C(F)(F)CO)c3F)ccc2=O)c1` [Example 204, N-[(1R)-1-[3-(1,1-difluoro-2-hydroxy-ethyl)-2-fluoro-phenyl]ethyl]-1-[3-(methoxymethyl)phenyl]-6-oxo-pyridazine-3-carboxamide] the IC50 was < 1000 nM.

Same assay, conditions: read-out: KRAS ^G12C::SOS1 PPI assay (IC50 range, Grade); maximum concentration 3 µM, 8 concentrations, three replicates
For “N-[(1R)-1-[3-amino-5-(trifluoromethyl)phenyl]ethyl]-1-(3-isoxazol-4-ylphenyl)-6-oxo-pyridazine-3-carboxamide [Example 322]”, the IC50 was < 1000 nM.

From patent EP4667458A1 (Kanaph Therapeutics Inc., priority 2023, dated 2024)
